The test system of series [1] is MRSA ATCC BAA-44. Kind of series: Minimal inhibitory concentration (MIC), standard broth microdilution. The class given is cell-based, Staphylococcus aureus. The conditions noted are these: for MIC: MRSA BAA-44 strain. The method, then:
(§1) RMA activity of the analogues was tested by assessing their abilities to sensitize MRSA to the antibiotic cefazolin (a first-generation cephalosporin). The well characterized strain MRSA ATCC BAA-44 was tested as previously described. […] The minimal inhibitory concentration (MIC), or the lowest concentration at which S. aureus is considered susceptible to an antibacterial, was determined by the standard broth microdilution method detailed in the CLSI handbook. RMA activity was compared by the ratio of MIC/MRC. The half growth inhibitory concentration (GI50) of each analogue against HeLa cells was determined as previously described. […] The luminescence of each sample was recorded in an Envision Multilabel Plate Reader (Perkin Elmer). Results of MICs and MRCs were confirmed by testing in triplicate. The GI50 assay was performed in duplicate.

A further series concerns HeLa cells. Nature of the series: GI50 against HeLa cells, Cell Titer Glo viability assay. The class given is cell-based, human. The conditions noted are these: for GI50: 24 h. The method, then:
as §1

Series [2] deals with MRSA ATCC BAA-44. Nature of the series: Minimum re-sensitizing concentration (MRC) in the presence of cefazolin. The class given is cell-based, Staphylococcus aureus. The conditions noted are these: MRSA BAA-44, cefazolin. The method, then:
as §1

The next series deals with MRSA-252. Nature of the series: MIC, scope of antibacterial activity. Format: cell-based, S. aureus. The conditions noted are these: Staphylococcus aureus. The method, then:
as §1
(§2) Furthermore, we explored the scope of the antibacterial activity of 12g in a panel of MRSA and MSSA strains including BAA-44 (MIC=1 μg/mL), MRSA-252 (MIC=2 μg/mL), B. subtilis NR-607 (MIC=2 μg/mL), E. faecium HM-460 (MIC=4 μg/mL), E. faecium 28977 (MIC=2 μg/mL) and MSSA (MIC=0.5 μg/mL).

A further series concerns MSSA. Nature of the series: MIC, scope of antibacterial activity. The conditions noted are these: Staphylococcus aureus. Format: cell-based, S. aureus. The method, then: as §1, §2
A further series has as its system B. subtilis NR-607. Nature of the series: MIC, scope of antibacterial activity. The conditions noted are these: Bacillus subtilis, NR607. The class given is cell-based. The method, then:
as §1, §2

A further series relates to E. faecium HM-460. Nature of the series: MIC, scope of antibacterial activity. The class given is cell-based. The conditions noted are these: Enterococcus faecium, HM460. The method, then:
as §1, §2

A further series has as its system E. faecium 28977. Nature of the series: MIC, scope of antibacterial activity. The class given is cell-based. The conditions noted are these: Enterococcus faecium. The method, then: as §1, §2
The nature of series [3]: GI50 against HeLa cells, Cell Titer Glo viability assay. The class given is cell-based, human. The conditions noted are these: human, HeLa cells, 24 h. The method, then:
as §1

A further series deals with multiple MRSA strains. Kind of series: RMA activity in multiple MRSA strains with cephalosporins. The class given is cell-based, S. aureus. The method, then: as §1
We next explored the scope of RMA activity of 4ad in different MRSA strains, including MRSA BAA-1683, MRSA BAA-1764, MRSA NR-46411, NRS-384 and NRS-100. These strains were selected because of their diverse geographical origins, genetic background, and resistance profile. We also tested RMA activity in combination with another commercial antibiotic, cefuroxime, which is a second-generation cephalosporin. MRCs in the presence of cefuroxime were determined using the same method as those for cefazolin.

[4] abbreviates: Staphylococcus aureus, read-out: MIC.

The structures appear in SMILES notation. ≈ marks a conversion by molar mass, not a printed value. Structures can show the parent of a compound that is named as a salt. Where two headings read alike, the source gives them in different places.

The term MIC denotes the least concentration at which growth counts as inhibited. By GI50 is commonly meant the concentration that inhibits growth by half. A low value points to greater sensitivity of the cells.

As to `COC(=O)C1CN(c2nc3ccc(Cl)cc3s2)Cc2[nH]c3ccc(Cl)cc3c21` (racemic) [Compound 4n, Methyl 6-chloro-2-(6-chlorobenzo[d]thiazol-2-yl)-2,3,4,9-tetrahydro-1H-pyrido[3,4-b]indole-4-carboxylate], in the series with MRSA ATCC BAA-44 [1] (setting [4]), the MIC was greater than 32 µg/mL. For the same molecule, the GI50 in the series on HeLa cells is 6.6 µg/mL (≈ 15.3 µM). For the same molecule, in the series on MRSA ATCC BAA-44 [2], the “RMA activity (in words)” value is “without compromising the RMA activity” and the “RMA activity (ratio of MIC/MRC)” value came to 32 fold.
On to `O=C(O)C1CN(c2nc3ccc(Cl)cc3s2)Cc2[nH]c3ccc(Cl)cc3c21` (racemic) [Compound 8, 6-Chloro-2-(6-chlorobenzo[d]thiazol-2-yl)-2,3,4,9-tetrahydro-1H-pyrido[3,4-b]indole-4-carboxylic acid], for which the MIC in the series with MRSA ATCC BAA-44 [1] (setting [4]) is 32 µg/mL (≈ 76.5 µM). Moreover, the GI50 in the series on HeLa cells came out at 65 µg/mL (≈ 155 µM). In addition, the “RMA activity (in words)” value in the series on MRSA ATCC BAA-44 [2] is listed as “significantly decreased or abolished the RMA activity”.
`N=C(N)NCC1CN(c2nc3ccc(Cl)cc3s2)Cc2[nH]c3ccc(Cl)cc3c21` (racemic) [Compound 12g, 1-((6-chloro-2-(6-chlorobenzo[d]thiazol-2-yl)-2,3,4,9-tetrahydro-1H-pyrido[3,4-b]indol-4-yl)methyl)guanidine hydrochloride]: the MIC in the series with MRSA ATCC BAA-44 [1] (hydrochloride) stood at 1 µg/mL; in the series on MRSA ATCC BAA-44 [1] (Staphylococcus aureus), 2 µg/mL; against MRSA-252, 2 µg/mL; in the series on MSSA, 0.5 µg/mL; against B. subtilis NR-607, 2 µg/mL; against E. faecium HM-460 it was 4 µg/mL. In the series on E. faecium 28977, 2 µg/mL was the least that counted as inhibitory (MIC). Besides, growth in series [3] was halved (GI50 at 24 h) at 14.1 µg/mL.
On to `Clc1ccc2nc(N3CCc4c([nH]c5ccc(Cl)cc45)C3)sc2c1` [Compound 4a, 6-Chloro-2-(6-chloro-1,3-benzothiazol-2-yl)-2,3,4,9-tetrahydro-1H-pyrido[3,4-b]indole], for which the MIC in the series with MRSA ATCC BAA-44 [1] (setting [4]) is greater than 64 µg/mL. This molecule returned a GI50 in the series with HeLa cells of 13.2 µg/mL (≈ 35.3 µM). In the series on MRSA ATCC BAA-44 [2], the “RMA activity (ratio of MIC/MRC)” value worked out at 32 fold.
Take `Nc1cc(Cl)c2nc(N3CCc4c([nH]c5ccc(Cl)cc45)C3)sc2c1` [Compound 4ad, 4-Chloro-2-(6-chloro-1,3,4,9-tetrahydro-2H-pyrido[3,4-b]indol-2-yl)-1,3-benzothiazol-6-amine]: the MIC against MRSA ATCC BAA-44 [1] is greater than 32 µg/mL. The molecule also gave a GI50 in the series with HeLa cells greater than 100 µg/mL. The “potentiation of antibiotics (in words)” value with multiple MRSA strains (five MRSA strains, cefazolin and cefuroxime) is “potentiates both antibiotic cefazolin and cefuroxime”. In addition, in the series on multiple MRSA strains (multiple MRSA strains, cephalosporins), the “concentration that re-sensitizes multiple MRSA strains to cephalosporins” value was 2 µg/mL. Besides, the “RMA activity (in words)” value with MRSA ATCC BAA-44 [2] is “good RMA activities”.
As for `FC(F)(F)c1cccc2sc(N3CCc4c([nH]c5ccc(Cl)cc45)C3)nc12` [Compound 4af, 6-Chloro-2-[4-(trifluoromethyl)-1,3-benzothiazol-2-yl]-2,3,4,9-tetrahydro-1H-pyrido[3,4-b]indole], the MIC in the series on MRSA ATCC BAA-44 [1] (setting [4]) is greater than 32 µg/mL. In the series on HeLa cells, the “worse GI50 relative to 4w” value stood at 3 fold and the GI50 turned out to be 8 µg/mL (≈ 19.6 µM). Besides, the “RMA activity (in words)” value in the series on MRSA ATCC BAA-44 [2] is given as “good RMA activities”.
Take `CNc1cc(C(F)(F)F)c2nc(N3CCc4c([nH]c5ccc(Cl)cc45)C3)sc2c1` [Compound 4ai, 2-(6-Chloro-1,3,4,9-tetrahydro-2H-pyrido[3,4-b]indol-2-yl)-N-methyl-4-(trifluoromethyl)-1,3-benzothiazol-6-amine]: in the series on MRSA ATCC BAA-44 [1] (setting [4]), the minimal inhibitory concentration (MIC) is greater than 32 µg/mL. In addition, the GI50 with HeLa cells came out at 15.4 µg/mL (≈ 35.2 µM). For the same molecule, the “RMA activity (in words)” value in the series with MRSA ATCC BAA-44 [2] is listed as “good RMA activities”.
Turning to `CCOC(=O)C1c2[nH]c3ccc(Cl)cc3c2CCN1c1nc2ccc(Cl)cc2s1` (stereo not drawn) [Compound 4l, Ethyl 6-chloro-2-(6-chloro-1,3-benzothiazol-2-yl)-2,3,4,9-tetrahydro-1H-pyrido[3,4-b]indole-1-carboxylate], in the series on MRSA ATCC BAA-44 [2], the “RMA activity (in words)” value is recorded as “abolished”.
For `COC(=O)C1Cc2c([nH]c3ccc(Cl)cc23)CN1c1nc2ccc(Cl)cc2s1` (stereo not drawn) [Compound 4m, Methyl 6-chloro-2-(6-chloro-1,3-benzothiazol-2-yl)-2,3,4,9-tetrahydro-1H-pyrido[3,4-b]indole-3-carboxylate], the MIC with MRSA ATCC BAA-44 [1] (setting [4]) was greater than 64 µg/mL. The “RMA activity (in words)” value in the series on MRSA ATCC BAA-44 [2] is “abolished”.
With `CCn1c2c(c3cc(Cl)ccc31)CCN(c1nc3ccc(Cl)cc3s1)C2` [Compound 4o, 6-Chloro-2-(6-chloro-1,3-benzothiazol-2-yl)-9-ethyl-2,3,4,9-tetrahydro-1H-pyrido[3,4-b]indole], the “RMA activity (in words)” value in the series with MRSA ATCC BAA-44 [2] was “abolished”.
As for `Clc1ccc2[nH]c3c(c2c1)CCN(c1nc2ccc(Br)cc2s1)C3` [Compound 4p, 2-(6-Bromo-1,3-benzothiazol-2-yl)-6-chloro-2,3,4,9-tetrahydro-1H-pyrido[3,4-b]indole], the MIC with MRSA ATCC BAA-44 [1] (setting [4]) was greater than 64 µg/mL. Moreover, in the series on HeLa cells, the GI50 is 5.1 µg/mL (≈ 12.2 µM). For the same molecule, in the series on MRSA ATCC BAA-44 [2], the “RMA activity (in words)” value is reported as “retained the RMA activity”.
As for `FC(F)(F)c1ccc2nc(N3CCc4c([nH]c5ccc(Cl)cc45)C3)sc2c1` [Compound 4s, 6-Chloro-2-[6-(trifluoromethyl)-1,3-benzothiazol-2-yl]-2,3,4,9-tetrahydro-1H-pyrido[3,4-b]indole], the MIC with MRSA ATCC BAA-44 [1] (setting [4]) was greater than 64 µg/mL. Besides, the GI50 in the series with HeLa cells was determined as 4.6 µg/mL (≈ 11.3 µM). For the same molecule, the “increase of RMA activity relative to 4a” value in the series with MRSA ATCC BAA-44 [2] came out at 4 fold.
`FC(F)(F)Oc1ccc2nc(N3CCc4c([nH]c5ccc(Cl)cc45)C3)sc2c1` [Compound 4t, 6-Chloro-2-[6-(trifluoromethoxy)-1,3-benzothiazol-2-yl]-2,3,4,9-tetrahydro-1H-pyrido[3,4-b]indole] displayed an MIC against MRSA ATCC BAA-44 [1] of 1 µg/mL (≈ 2.36 µM). This molecule returned a GI50 in the series on HeLa cells of 7.3 µg/mL (≈ 17.2 µM). For the same molecule, the “RMA activity (in words)” value in the series with MRSA ATCC BAA-44 [2] was “lost the RMA activity completely”.
Take `Clc1ccc2[nH]c3c(c2c1)CCN(c1nc2cccc(Cl)c2s1)C3` [Compound 4u, 6-Chloro-2-(7-chloro-1,3-benzothiazol-2-yl)-2,3,4,9-tetrahydro-1H-pyrido[3,4-b]indole]: the “MIC (in words)” value against MRSA ATCC BAA-44 [1] (MRSA BAA-44) is “increased MIC”. Moreover, the minimal inhibitory concentration (MIC) with MRSA ATCC BAA-44 [1] (setting [4]) was determined as 4 µg/mL (≈ 10.7 µM). In the series with HeLa cells, this molecule registered a GI50 of 6.7 µg/mL (≈ 17.9 µM). Besides, the “RMA activity (in words)” value in the series with MRSA ATCC BAA-44 [2] was “reduced RMA activity”.
As for `Clc1ccc2sc(N3CCc4c([nH]c5ccc(Cl)cc45)C3)nc2c1` [Compound 4v, 6-Chloro-2-(5-chloro-1,3-benzothiazol-2-yl)-2,3,4,9-tetrahydro-1H-pyrido[3,4-b]indole], in the series with MRSA ATCC BAA-44 [2], the “RMA activity (in words)” value is listed as “no RMA activity”.
On to `Clc1ccc2[nH]c3c(c2c1)CCN(c1nc2c(Cl)cccc2s1)C3` [Compound 4w, 6-Chloro-2-(4-chloro-1,3-benzothiazol-2-yl)-2,3,4,9-tetrahydro-1H-pyrido[3,4-b]indole], for which the MIC with MRSA ATCC BAA-44 [1] (setting [4]) is greater than 64 µg/mL. For the same molecule, the GI50 in the series with HeLa cells stood at 27.7 µg/mL (≈ 74 µM). The “RMA activity (in words)” value with MRSA ATCC BAA-44 [2] is “maintained similar RMA activity”.
